The results in this text go back to US20050220779A1, “Integrin linked kinase modulation of macrophage activation” (priority 2001, published 2005).

What is called inhibition is the relative decrease from the control value, in per cent.

The test system of test [1] is RAW 264.7 cells. Nature of the test: LPS-IFN-γ-induced macrophage NO production (Griess nitrite assay), RAW 264.7 cells. The test is classed as cell-based, murine. The conditions noted are these: 24 h; for NO release (%): 50 μM, relative to DMSO treated cells; for inhibition at 50 µM: Mus musculus, RAW264.7, 50 μM. Here is the method:
RAW 264.7 cells. RAW 264.7 cells, a murine macrophage cell line, were obtained from American Type Culture Collection (ATCC, Manassas, Va.) and cultured in DMEM supplemented with 10% FCS. Each treatment was performed in triplicate wells. RAW 264.7 cells (Balb/c background) produce a significant amount of nitric oxide upon treatment with IFN-γ alone, but require LPS for full activation. This property makes their behavior more like that of normal macrophages obtained from commonly used strains of mice.
Treatment of primary macrophages and RAW 264.7 cells. […] Following 3 h incubation, at 37 C, 5% CO2 (macrophages were allowed to attach) cells were stimulated with LPS (0.5 μg/ml) and IFN-γ (100 U/ml) in the absence or presence of various concentrations of ILK inhibitors (all treatments were replicated six times). Cells were incubated for an additional 24 h, and cell free culture supernatants from each well were collected for NO and cytokine determination. The remaining cells were stained with crystal violet to determine effect of the inhibitors on cell survival.
NO production. Following stimulation, the production of NO was determined by assaying culture supernatants for NO2^−, a stable reaction product of NO with molecular oxygen. Briefly, 100 μl of culture supernatant was reacted with an equal volume of Griess reagent at room temperature for 10 min. The absorbance at 550 nm was determined. All measurements were performed six times. The concentration of NO2^−was calculated by comparison with a standard curve prepared using NaNO2.
Effects of ILK inhibitors on LPS-IFN-γ-induced NO release. […] […] To compare the effect of the compounds across three different cell types, the NO release for each cell type was expressed relative to DMSO treated cells.
On the technique in general: Nitrite, measured by Griess reagent, commonly stands in for NO production.

Test [2] concerns the target T1, integrin linked kinase (full-length recombinant GST-ILK) (Homo sapiens, UniProt Q13418).
T1 construct: The target integrin linked kinase is a full-length recombinant protein expressed in sF9 insect cells; made in house; host or cells: baculovirus; virus amplified in Sf9, protein expressed in Hi5 insect cells
T1 sequence (Q13418 1-452): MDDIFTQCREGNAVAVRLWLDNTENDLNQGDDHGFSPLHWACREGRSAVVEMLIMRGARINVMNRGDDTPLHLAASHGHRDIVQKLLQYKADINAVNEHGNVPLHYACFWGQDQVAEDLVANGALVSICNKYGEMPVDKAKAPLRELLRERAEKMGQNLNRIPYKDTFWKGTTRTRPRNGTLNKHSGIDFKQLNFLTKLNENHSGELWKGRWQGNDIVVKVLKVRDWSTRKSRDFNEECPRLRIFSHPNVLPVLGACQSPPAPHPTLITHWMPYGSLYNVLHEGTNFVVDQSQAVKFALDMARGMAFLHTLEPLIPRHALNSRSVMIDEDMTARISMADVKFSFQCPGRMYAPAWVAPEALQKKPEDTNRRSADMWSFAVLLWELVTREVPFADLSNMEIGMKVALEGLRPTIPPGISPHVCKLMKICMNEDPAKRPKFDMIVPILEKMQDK
Nature of the test: ILK kinase inhibition assay (phosphocellulose filter, scintillation counting). The format is biochemical. Here is the method: Inhibition Assay: Compounds were received in lyophilized form and stored at −20° C. Stock solutions were made by weighing out the compounds and dissolving them in dimethyl sulfoxide (DMSO) to a standard concentration, usually 20 mM, and stored at −20° C. […] Diluted 100% DMSO was used as a negative control.
5 μl of each compound dilution were robotically pipetted to Costar serocluster plates maintaining the same plate format. All assays consisted of the following volumes: • 5 μl diluted compound • 10 μl enzyme preparation • 5 μl substrate • 5 μl assay ATP and were then incubated 15 min at room temperature.
From each reaction, 10 μl of reaction mix was spotted onto Millipore Multiscreen-PH opaque plates and washed 2×10 min in 1% phosphoric acid. The plates were dried for at 40° C. for 30 min, then the substrate phosphate complexes were quantitated by scintillation counting. These Millipore plates are in a 96 well format with immobilized P81 phosphocellulose membranes. Both the phosphorylated and non-phosphorylated form of the substrate bind to the membrane while ATP (unincorporated phosphate) is removed in the subsequent wash steps.
Integrin Linked Kinase: The target integrin linked kinase is a full-length recombinant protein expressed in sF9 insect cells by baculovirus infection. The ILK1 substrate is […]-amide.
Recombinant ILK protein was expressed using cultured insect cells and a baculovirus expression system.
A large scale plasmid preparation of the resulting transfer construct was made using a Qiagen Plasmid Midi Kit. This ILK transfer construct was then co-transfected with BaculoGold DNA (Pharmingen) into Sf9 insect cells (Invitrogen) and a high titre preparation of GST-ILK recombinant baculovirus was produced by amplification in Sf9 cells. Liter scale expression of GST-ILK recombinant protein was done in 1000 ml spinner flasks (Bellco) by infection of Hi5 insect cells (invitrogen) grown in Ex-Cell 400 Serum Free Media (JRH Biosciences) at a multiplicity of infection of approximately 5. The cells were harvested three days after infection and lysed in Hypotonic Lysis Buffer (HLB; 10 mM imidazole, 5 mM EDTA, 0.1% β-mercaptoethanol, 10 ug/ml PMSF, 1 mM benzamidine) by sonication. The lysate was centrifuged at 10,000×g for 20 min and the supernatant was discarded. The pellet was washed twice in HLB and then washed twice in High Salt Buffer (HSB; 500 mM NaCl, 10 mM imidazole, 5 mM EDTA, 0.1% β-mercaptoethanol, 10 ug/mI PMSF, 1 mM benzamidine). The pellet was then resuspended in DNAse-ATP Buffer (DAB; 10 mM MgCl2, 1 mM MnCl2, β-methyl aspartic acid, 2 mM NaF, 0.55 mg/ml ATP, 1 ug/ml DNAse l, 1% NP-40, 10 mM imidazole, 5 mM EDTA, 0.1% β-mercaptoethanol, 10 ug/ml PMSF, 1 mM benzamidine) and stirred for 30 min at room temperature, and then centrifuged at 10,000×g for 20 min. The pellet was resuspended in High Salt Detergent buffer (HDB; 1% NP-40, 1% Triton X-100, 500 mM NaCl, 10 mM imidazole, 5 mM EDTA, 0.1% β-mercaptoethanol, 10 ug/ml PMSF, 1 mM benzamidine), stirred for 30 min at room temperature, and then centrufuged at 10,000×g for 20 min. The pellet was then washed once in each of HDB, HSB, and HLB, centrifuging at 10,000×g each time. Finally, the pellet was resuspended in HLB.

Turning to `N=C(N)N/N=C/c1ccc(Cl)cc1Cl` [KP-16735], in test [1], the “NO release (%)” value was 20.4% and the inhibition at 50 µM was determined as 73%. For the same molecule, the inhibition at 0.1 µM in test [2] (0.1 μM, corrected against the maximum observed inhibition) came out at 13%. For the same molecule, the inhibition at 0.3 µM in test [2] (0.3 μM, corrected against the maximum observed inhibition) was -1%. The inhibition at 0.7 µM in test [2] (0.7 μM, corrected against the maximum observed inhibition) is 4%. Besides, the inhibition at 1.6 µM in test [2] (1.6 μM, corrected against the maximum observed inhibition) is 18%. For the same molecule, in test [2] (4.1 μM, corrected against the maximum observed inhibition), the inhibition at 4.1 µM amounted to 32%. In test [2] (10.2 μM, corrected against the maximum observed inhibition), the inhibition at 10.2 µM came to 69%. Moreover, the inhibition at 25.6 µM in test [2] (25.6 μM, corrected against the maximum observed inhibition) is 85%. For the same molecule, the inhibition at 64 µM in test [2] (64.0 μM, corrected against the maximum observed inhibition) was 99%. For the same molecule, the inhibition at 160 µM in test [2] (160.0 μM, corrected against the maximum observed inhibition) was 102%. Also, the inhibition at 400 µM in test [2] (400.0 μM, corrected against the maximum observed inhibition) came out at 99%.
Take `Oc1ccc2c(c1)CC1NCCc3cc(O)c(O)c-2c31` (stereo not drawn) [KP-21849, 5,6,6a,7-Tetrahydro-4H-dibenzo[de,g]quinoline-1,2,9-triol]: in test [1], the “NO release (%)” value is on record as −0.1% and the inhibition at 50 µM was 100%. The “inhibits ILK at” value in test [2] was 2 µM.
